Reference: patent US8278072B1, “Method for synthesis of sialylated products using reversible sialylation” (Health Research, Inc., priority 2007, dated 2012)

Biological target: T1, ST3Gal-II (Rattus norvegicus, UniProt Q11205)
T1 construct: purchased Calbiochem
T1 sequence (Q11205 1-350): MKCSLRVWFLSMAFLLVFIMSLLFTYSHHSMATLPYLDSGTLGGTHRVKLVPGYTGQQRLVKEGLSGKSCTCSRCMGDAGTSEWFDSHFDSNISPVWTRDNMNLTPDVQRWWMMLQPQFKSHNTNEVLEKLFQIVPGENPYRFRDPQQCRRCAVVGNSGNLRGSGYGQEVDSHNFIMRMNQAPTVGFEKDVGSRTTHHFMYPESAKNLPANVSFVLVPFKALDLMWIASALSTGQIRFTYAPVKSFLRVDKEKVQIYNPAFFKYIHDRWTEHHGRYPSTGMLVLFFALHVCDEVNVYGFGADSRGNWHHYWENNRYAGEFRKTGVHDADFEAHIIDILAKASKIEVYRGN
Assay: Reverse sialylation equilibrium constant (Keq) and 5′-CMP dose dependence
Assay type: biochemical
Conditions: donor 0.15 mM [2], 0.15 mU ST3Gal-II, 2 hours; read-out: concentration of 5′-CMP that mediated half-maximal transfer of [9-3H]NeuAc
Experimental: FIG. 2. Equilibrium constant. a. Reversible sialyltransferase activity at increasing concentration of 5′-CMP. 0.15 mM of donor [9-^3H]NeuAcα2,3Galβ1,3(4-FGlcNAcβ1,6)GalNAcα-O-Bn [9-^3H[2]] was incubated with varying concentrations of 5′-CMP and 0.15 mU ST3Gal-II under conditions described in FIG. 1 for 2 hours. The consumption of the [9-^3H]NeuAc benzyl glycoside donor was measured by subjecting the incubation mixture to Sep-Pak C18 fractionation, which binds the donor and not CMP-[9-^3H]NeuAc. The reaction proceeded to ½ the maximum extent at 80 μM 5′-CMP. b. Equilibrium constant Keq (=0.35) calculated for data in panel a. c. Varying concentrations of 5′-CMP was sialylated with ST3Gal-II (2.0 mU) using either 0.15 mM (panel c) or 1.5 mM (not shown) sialyl donor [9-^3H]NeuAcα2,3Galβ1,3GalNAcβ1,3Galα-O-Me [9-^3H[3]] for 4 hours. The product CMP-[9-^3H]NeuAc and the unused [9-^3H[3]] were separated and quantitated by Dowex-1-Formate method. d. Equilibrium constant, Keq=98.9. Diamonds denote data from 1.5 mM runs while data from 0.15 mM runs are depicted by squares.
a) Biogel P2 chromatography: A Biogel P2 column (Fine Mesh; 1.0×116.0 cm) was used with 0.1 M pyridine acetate (pH5.4) as the eluent at room temperature. […] Fractions of 1.0 ml were collected. The bound material was then eluted with 0.5M GlcNAc or 0.2M Gal in the same buffer. […] Calculation of equilibrium constant, Keq: Equilibrium constant was calculated for selected reversible bimolecular reactions that are denoted by:
[formula] Here, [9-^3H]D* denotes the radiolabeled donor and D′ is the donor after removal of sialic acid. Similarly, A and [9-^3H]A* denote the acceptor before and after incorporation of NeuAc. In each run, unreacted [9-^3H]D* and product [9-^3H] A* are measured using radioactivity measurements. The equilibrium constant (Keq=kreverse/kforward, dimensionless units) are then determined using the following equation, where terms in square brackets denote concentrations:
[formula] [D0] and [A0] are initial donor and acceptor concentrations. A plot of [D*]/([D0]−[D*]) versus [A*]/([A0]−[A*]) yields Keq from slope data. Keq<1 implies that the forward reaction is favored and the reaction proceeds to the right side to form [9-^3H]A* efficiently. Liquid Chromatography Coupled with Tandem Mass Spectrometry (LC/MS/MS)
Similar results were observed upon increasing concentrations of 5′-CMP when [9-^3H]NeuAcα2,3Galβ1,3(4-FGlcNAcβ1,6) GalNAcα-O-Bn [9-^3H[2]] was donor (FIG. 2a, b). The concentration of 5′-CMP that mediated half-maximal transfer of [9-^3H]NeuAc was 80 μM. The bimolecular equilibrium constant (Keq) for this reaction was 0.35 (dimensionless units, Table I). Indeed, the Keq varied depending on the donor and it was 98.9 when the donor was based on the globo glycolipid, [9-^3H]NeuAcα2,3Galβ1,3GalNAcβ1,3 Gala-O-Me [[9-^3H] [3]] (FIG. 2c, d). Upon comparing and [3], it is apparent that reverse sialylation proceeds more effectively in the case of [2]. To further confirm the above estimates of Keq for core-2 based structures, we also calculated this parameter for our previously published data where [9-^3H]CMP-NeuAc was donor and mucin core-2 tetrasaccharide Galβ1,4GlcNAcβ1,6(Galβ1,3)GalNAcα-O-Bn was acceptor. In this case, Keq measured with respect to the rate of mucin core-2 sialylation was 5.55 (data not shown), which translates to a reverse sialylation Keq of 0.18.

How did the EC50 turn out when `Nc1ccn([C@@H]2O[C@H](COP(=O)(O)O)[C@@H](O)[C@H]2O)c(=O)n1` [5′-CMP, Cytidine 5′-monophosphate] was run?
Its EC50 is 80 µM.
